Results from patent publication US10597388B2, “Pyridazinone herbicides” (FMC CORPORATION, priority 2014, dated 2020).

Assays:
Assay type in all cases: in vivo
[1] = tested on: dayflower (Virginia (VA) dayflower, Commelina virginica); experiment: Test E greenhouse herbicide test, pre- and postemergence
Outline: (§1)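 Seeds were sown in silt loam and sprayed preemergence with compound in a non-phytotoxic solvent mix containing surfactant; for postemergence, plants at 2 to 18 cm (1- to 4-leaf stage) in peat-based potting medium were sprayed with the same formulation. After 14 to 21 d in a greenhouse, injury was rated visually against controls (0–100).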

[2] = tested on: panicum, fall (fall panicum, Panicum dichotomiflorum); experiment: as above
Outline: as §1

[3] = tested on: momingglory (Ipomoea coccinea); experiment: as above; conditions: Preemergence
Outline: as §1

[4] = tested on: lambsquarters (Chenopodium album); experiment: as above; conditions: Preemergence
Outline: as §1

soybean (Glycine max) = experiment: as above
Outline: as §1

[5] = tested on: arrowleaf sida (Sida rhombifolia); experiment: as above
Outline: as §1

[6] = tested on: beggarticks (hairy beggarticks, Bidens pilosa); experiment: as above
Outline: as §1

[7] = tested on: horseweed (Conyza canadensis); experiment: as above
Outline: as §1

[8] = tested on: field bindweed (Convolvulus arvensis); experiment: as above
Outline: as §1

[9] = tested on: wheat, spring (spring wheat, Triticum aestivum); experiment: Test D controlled growth environment herbicide test, pre- and postemergence
Outline: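 Species sown in silt loam and sprayed preemergence, or grown in peat-based medium to 2–18 cm (1- to 4-leaf stage) and sprayed postemergence, with compounds in non-phytotoxic solvent plus surfactant. Visual injury scored versus controls after 14–21 d in a controlled environment, 0 (no effect) to 100 (complete control).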

[10] = 62 g ai/ha, Postemergence, scale 0 to 100 (0 no effect, 100 complete control)
[11] = 62 g ai/ha, Preemergence, scale 0 to 100 (0 no effect, 100 complete control)
[12] = 125 g ai/ha, Postemergence, scale 0 to 100 (0 no effect, 100 complete control)
[13] = 250 g ai/ha, Postemergence, scale 0 to 100 (0 no effect, 100 complete control)
[14] = Postemergence, 31 g ai/ha, visual, scale 0 no effect to 100 complete control
[15] = Preemergence, 31 g ai/ha, scale 0 to 100, 0 no effect, 100 complete control
[16] = Preemergence, 125 g ai/ha, visual, scale 0 no effect to 100 complete control
[17] = Preemergence, 250 g ai/ha, visual, scale 0 no effect to 100 complete control
[18] = 125 g ai/ha, Preemergence, scale 0 to 100 (0 no effect, 100 complete control)
[19] = 62 g ai/ha, scale 0 to 100 (0 no effect, 100 complete control)
[20] = 125 g ai/ha, scale 0 to 100 (0 no effect, 100 complete control)
[21] = 31 g ai/ha, scale 0 to 100, 0 no effect, 100 complete control
[22] = 250 g ai/ha, visual, scale 0 no effect to 100 complete control
[23] = Postemergence, 31 g ai/ha, scale 0 to 100 (0 no effect, 100 complete control)
[24] = Postemergence, 125 g ai/ha, visual rating on scale 0 (no effect) to 100 (complete control), 14 to 21 d
[25] = Postemergence, 250 g ai/ha, scale 0 to 100 (0 no effect, 100 complete control)
[26] = Preemergence, 125 g ai/ha, scale 0 to 100 (0 no effect, 100 complete control)
[27] = Preemergence, 250 g ai/ha, scale 0 to 100 (0 no effect, 100 complete control)
[28] = postemergence, 62 g ai/ha, scale 0 to 100, 0 no effect, 100 complete control

CC(=O)Oc1c(C)nn(C)c(=O)c1-c1c(C)sc2ccc(C)cc12 [Compound 25]
Plant response rating, Dayflower, VA [1, 10]: 40
Plant response rating, Dayflower, VA [1, 11]: 5
Plant response rating, Dayflower, VA [1, 12]: 50
Plant response rating, Dayflower, VA [1, 13]: 65
Plant response rating, Dayflower, VA [1, 14]: 10
Plant response rating, Dayflower, VA [1, 15]: 0
Plant response rating, Dayflower, VA [1, 16]: 15
Plant response rating, Dayflower, VA [1, 17]: 30
Plant response rating, Panicum, Fall [2, 10]: 50
Plant response rating, Panicum, Fall [2, 11]: 100
Plant response rating, Panicum, Fall [2, 12]: 80
Plant response rating, Panicum, Fall [2, 18]: 100
Plant response rating, Panicum, Fall [2, 13]: 90
Plant response rating, Panicum, Fall [2, 14]: 50
Plant response rating, Panicum, Fall [2, 15]: 95
Plant response rating, Panicum, Fall [2, 17]: 100
Plant response rating, Morningglory [3, 19]: 70
Plant response rating, Morningglory [3, 20]: 95
Plant response rating, Morningglory [3, 21]: 65
Plant response rating, Morningglory [3, 22]: 100
Plant response rating, Lambsquarters [4, 19]: 100
Plant response rating, Lambsquarters [4, 21]: 98
Plant response rating, Lambsquarters ([4]; 125 g ai/ha, visual, scale 0 no effect to 100 complete control): 100
Plant response rating, Lambsquarters [4, 22]: 100
Plant response rating, Soybean (soybean (Glycine max); [10]): 20
Plant response rating, Soybean (soybean (Glycine max); [12]): 30
Plant response rating, Soybean (soybean (Glycine max); [18]): 0
Plant response rating, Soybean (soybean (Glycine max); [13]): 75
Plant response rating, Soybean (soybean (Glycine max); [14]): 0
Plant response rating, Soybean (soybean (Glycine max); [15]): 0
Plant response rating, Soybean (soybean (Glycine max); [17]): 70
Plant response rating, Arrowleaf Sida [5, 10]: 75
Plant response rating, Arrowleaf Sida [5, 11]: 80
Plant response rating, Arrowleaf Sida [5, 12]: 80
Plant response rating, Arrowleaf Sida [5, 13]: 85
Plant response rating, Arrowleaf Sida [5, 14]: 60
Plant response rating, Arrowleaf Sida [5, 15]: 40
Plant response rating, Arrowleaf Sida [5, 16]: 90
Plant response rating, Arrowleaf Sida [5, 17]: 95
Plant response rating, Beggarticks [6, 10]: 100
Plant response rating, Beggarticks [6, 11]: 100
Plant response rating, Beggarticks [6, 12]: 100
Plant response rating, Beggarticks [6, 13]: 100
Plant response rating, Beggarticks [6, 14]: 100
Plant response rating, Beggarticks [6, 15]: 100
Plant response rating, Beggarticks [6, 16]: 100
Plant response rating, Beggarticks [6, 17]: 100
Plant response rating, Horseweed [7, 11]: 100
Plant response rating, Horseweed [7, 15]: 100
Plant response rating, Horseweed [7, 16]: 100
Plant response rating, Horseweed [7, 17]: 100
Plant response rating, Field Bindweed [8, 10]: 95
Plant response rating, Field Bindweed [8, 11]: 98
Plant response rating, Field Bindweed [8, 12]: 95
Plant response rating, Field Bindweed [8, 13]: 90
Plant response rating, Field Bindweed [8, 14]: 90
Plant response rating, Field Bindweed [8, 15]: 80
Plant response rating, Field Bindweed [8, 16]: 60
Plant response rating, Field Bindweed [8, 17]: 98
Wheat, Spring plant response rating [9, 23]: 0
Plant response rating, Wheat, Spring [9, 24]: 15
Plant response rating, Wheat, Spring [9, 25]: 20
Plant response rating (scale of 0 to 100), Wheat, Spring ([9]; Preemergence, 31 g ai/ha): 0
Plant response rating, Wheat, Spring ([9]; Preemergence, 62 g ai/ha, scale 0 to 100 (0 no effect, 100 complete control)): 0
Plant response rating, Wheat, Spring [9, 26]: 10
Plant response rating, Wheat, Spring [9, 27]: 25
Plant response rating, Wheat, Spring [9, 28]: 0

Cc1cc(C)c2sc(C)c(-c3c(OC(=O)OCCCl)c(C)nn(C)c3=O)c2c1 [Compound 85]
Plant response rating, Dayflower, VA [1, 10]: 60
Plant response rating, Dayflower, VA [1, 11]: 0
Plant response rating, Dayflower, VA [1, 12]: 60
Plant response rating, Dayflower, VA [1, 18]: 30
Plant response rating, Dayflower, VA [1, 13]: 80
Plant response rating, Dayflower, VA [1, 14]: 50
Plant response rating, Dayflower, VA [1, 15]: 0
Plant response rating, Dayflower, VA [1, 17]: 75
Plant response rating, Panicum, Fall [2, 10]: 75
Plant response rating, Panicum, Fall [2, 11]: 85
Plant response rating, Panicum, Fall [2, 12]: 80
Plant response rating, Panicum, Fall [2, 18]: 98
Plant response rating, Panicum, Fall [2, 13]: 95
Plant response rating, Panicum, Fall [2, 14]: 75
Plant response rating, Panicum, Fall [2, 15]: 95
Plant response rating, Panicum, Fall [2, 17]: 100
Plant response rating, Morningglory [3, 19]: 30
Plant response rating, Morningglory [3, 20]: 50
Plant response rating, Morningglory [3, 21]: 25
Plant response rating, Morningglory [3, 22]: 100
Plant response rating, Lambsquarters [4, 19]: 100
Plant response rating, Lambsquarters [4, 20]: 100
Plant response rating, Lambsquarters [4, 21]: 70
Plant response rating, Lambsquarters [4, 22]: 100
Plant response rating, Soybean (soybean (Glycine max); [11]): 0
Plant response rating, Soybean (soybean (Glycine max); [12]): 5
Plant response rating, Soybean (soybean (Glycine max); [18]): 0
Plant response rating, Soybean (soybean (Glycine max); [13]): 15
Plant response rating, Soybean (soybean (Glycine max); [14]): 0
Plant response rating, Soybean (soybean (Glycine max); [15]): 0
Plant response rating, Soybean (soybean (Glycine max); [17]): 0
Plant response rating, Arrowleaf Sida [5, 10]: 50
Plant response rating, Arrowleaf Sida [5, 11]: 0
Plant response rating, Arrowleaf Sida [5, 12]: 50
Plant response rating, Arrowleaf Sida [5, 18]: 50
Plant response rating, Arrowleaf Sida [5, 13]: 50
Plant response rating, Arrowleaf Sida [5, 14]: 40
Plant response rating, Arrowleaf Sida [5, 15]: 0
Plant response rating, Arrowleaf Sida [5, 17]: 70
Plant response rating, Beggarticks [6, 10]: 100
Plant response rating, Beggarticks [6, 11]: 100
Plant response rating, Beggarticks [6, 12]: 100
Plant response rating, Beggarticks [6, 18]: 100
Plant response rating, Beggarticks [6, 13]: 100
Plant response rating, Beggarticks [6, 14]: 90
Plant response rating, Beggarticks [6, 15]: 90
Plant response rating, Beggarticks [6, 17]: 100
Plant response rating, Horseweed [7, 10]: 85
Plant response rating, Horseweed [7, 12]: 85
Plant response rating, Horseweed [7, 13]: 90
Plant response rating, Horseweed [7, 14]: 60
Plant response rating, Field Bindweed [8, 10]: 50
Plant response rating, Field Bindweed [8, 11]: 5
Plant response rating, Field Bindweed [8, 12]: 60
Plant response rating, Field Bindweed [8, 18]: 20
Plant response rating, Field Bindweed [8, 13]: 90
Plant response rating, Field Bindweed [8, 14]: 50
Plant response rating, Field Bindweed [8, 17]: 95
Wheat, Spring plant response rating [9, 23]: 0
Plant response rating, Wheat, Spring [9, 24]: 15
Plant response rating, Wheat, Spring [9, 25]: 20
Plant response rating (scale of 0 to 100), Wheat, Spring ([9]; Preemergence, 31 g ai/ha): 0
Plant response rating (scale of 0 to 100), Wheat, Spring ([9]; Preemergence, 62 g ai/ha): 0
Plant response rating, Wheat, Spring [9, 26]: 15
Plant response rating, Wheat, Spring [9, 27]: 40
Plant response rating, Wheat, Spring [9, 28]: 0
